Assay results taken from US20060088598A1, “Intravenous composition, process for producing the same and preparation thereof” (LTT Bio-Pharama Co., Ltd., priority 2002, published 2006).

How the values were obtained:
Assay type in all cases: physicochemical
[1] = Encapsulation ratio of agents in PLGA microparticles (HPLC of supernatant and deposit); conditions: FIG. 1; microparticles of Example 1
Protocol: 100 mg of PLGA (Wako) or PLA (Wako), 10 mg of egg yolk lecithin, and 0.5 mg of an agent were dissolved in 1 ml of dichloromethane. While cooling in an ice bath, the obtained solution was slowly added dropwise, through a 27G needle, to 25 ml of distilled water, which was being stirred with Polytron PT-2100 (Kinematica) or an ultrasonic generator (TOMY). After the stirring was continued for 10 minutes, the mixture was further stirred with a stirrer at room temperature for 2 hours. Thereafter, dichloromethane was removed. The obtained microparticles were concentrated by ultra filtration (Amicon, Centriprep YM-10) and were then purified by gel filtration (Pharmacia, PD-10). The thus obtained particles were centrifuged at 13,000 g for 10 minutes, and the agent contained in the supernatant and deposit was assayed by HPLC. HPLC analysis was carried out in a water/acetonitrile system for measuring the absorption at 210 nm or 240 nm using a C4 reverse phase column (Waters, Symmetry 300). With regard to agents, PGE1, and ASO06 produced by esterifying carboxylic acid and a hydroxyl group thereof, were used as prostanoids.

[2] = Releasing behavior of agent from agent-encapsulated PLGA microparticles in suspension; conditions: 3% BSA-containing PBS at 37° C.; FIG. 3
Protocol: (§1) 30 mg of PLGA (Wako) or PLA (Wako), 3 mg of egg yolk lecithin (Wako), and 1 mg of AS006 or BDP were dissolved in 1 ml of dichloromethane, and microparticles were then produced by the same method as described in Example 1. The obtained microparticles were suspended in distilled water, PBS, or 3% BSA-containing PBS. The suspension was allowed for a certain period of time, and was then centrifuged at 13,000 g for 10 minutes. Thereafter, AS006 or BDP contained in the deposit was assayed by HPLC.

[3] = Remaining ratio of agent in PLGA microparticles after 1% SDS or 80% FBS, 37° C., 5 minutes; conditions: with addition of SDS, FIG. 4
Protocol: Each of the agents produced in Example 1 was suspended in 80% FBS (fetal bovine serum) or in a 1% SDS aqueous solution, and the suspension was incubated at 37° C. for 5 minutes. Thereafter, the resultant product was centrifuged at 13,000 g for 10 minutes, and the amount of the agent contained in the deposit was assayed by HPLC.

[4] = Releasing behavior after freeze-drying in 10% sucrose; conditions: freeze-dried in 10% sucrose, resuspended in 3% BSA-containing PBS; FIGS. 6 and 7
Protocol: as §1
A 10% stabilizer was added to the PLGA microparticle suspension produced in Example 2, and the suspension was then frozen with acetone/dry ice, followed by performing a freeze-drying treatment. The dried PLGA microparticles were dispersed in water again. Thereafter, the turbidity of the suspension was measured with a spectrophotometer, and the microparticle size thereof was measured with a dynamic light scattering photometer. In addition, the AS006-containing PLGA microparticles produced in Example 4 and the BDP-containing PLGA microparticles produced in Example 2 were freeze-dried in 10% sucrose, and the remaining amount of the agent and the releasing behavior were measured by the method described in Example 2.

SMILES	encapsulation ratio in PLGA microparticle [1]	sustained-release behavior [2]	agent remaining in PLGA [3] [%]	releasing behavior with vs without freeze-drying [4]
CCC(=O)OCC(=O)[C@@]1(OC(=O)CC)[C@@H](C)C[C@H]2[C@@H]3CCC4=CC(=O)C=C[C@]4(C)[C@@]3(F)[C@@H](O)C[C@@]21C [BDP, betamethazone dipropionate]	significantly increased	same sustained-release behavior as that of ASO06	≥ 80	same releasing behavior regardless whether or not a freeze-drying treatment had been carried out
C[C@]12CCC(=O)C=C1CC[C@@H]1[C@@H]2[C@@H](O)C[C@@]2(C)[C@H]1CC[C@]2(O)C(=O)CO [hydrocortisone, Hydrocortisone]	almost neither hydrocortisone nor betamethazone could be encapsulated	–	–	–
CCCC(=O)O[C@]1(C(=O)COC(=O)CC)CC[C@H]2[C@@H]3CCC4=CC(=O)CC[C@]4(C)[C@H]3[C@@H](O)C[C@@]21C [HBP, hydrocortisone butyrate propionate]	significantly increased	–	–	–
CCCCC[C@H](O)/C=C/[C@H]1[C@H](O)CC(=O)[C@@H]1CCCCCCC(=O)O [PGE1, prostaglandin E1]	almost no PGE1 could be encapsulated	–	–	–
